Patent US10028992B2, “Methods of treating muscular dystrophy” (BOARD OF REGENTS OF THE NEVADA SYSTEM OF HIGHER EDUCATION …, priority 2012, dated 2018)

Test system: α7 integrin promoter
Assay: muscle cell-based assay: α7βgal+/− myoblasts/myotubes, LacZ reporter, β-galactosidase cleavage of FDG
Design: species or system mouse
Conditions: Myotubes; for Results in a α7+/− β-galactosidase assay, Myotubes, 0.5 uM: compound at 0.5 uM; for Results in a α7+/− β-galactosidase assay, Myotubes, 1 uM: compound at 1 uM; for Results in a α7+/− β-galactosidase assay, Myotubes, 5 uM: compound at 5 uM; for Results in a α7+/− β-galactosidase assay, Myotubes, 10 uM: compound at 10 uM; for Results in a α7+/− β-galactosidase assay, Myotubes, 20 uM: compound at 20 uM; for Results in a α7+/− β-galactosidase assay, Myotubes, 40 uM: compound at 40 uM
How it was run: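 Fluorescein generated from FDG by β-galactosidase reports α7 integrin promoter activity in differentiated myoblasts from α7+/− LacZ knock-in pups. Screening hits then went to dose-response, western blotting and a myostatin counterscreen.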

Row | SMILES | Results in a α7+/− β-galactosidase assay, Myotubes, 0.5 uM | Results in a α7+/− β-galactosidase assay, Myotubes, 1 uM | Results in a α7+/− β-galactosidase assay, Myotubes, 5 uM | Results in a α7+/− β-galactosidase assay, Myotubes, 10 uM | Results in a α7+/− β-galactosidase assay, Myotubes, 20 uM | Results in a α7+/− β-galactosidase assay, Myotubes, 40 uM
1 | CCn1c(=O)c2cc(C(=O)N(C)c3cc(C)ccc3OC)sc2c2ccccc21 [drawing 428] | −0.1274 | −0.01854 | −0.1965 | −0.1001 | −0.31 | −0.8047
2 | CCOC(=O)C1=C(NC(=O)c2ccc(OC)c(S(=O)(=O)N3CCCCC3C)c2)Nc2ccccc2N=C1CC (stereo not drawn) [drawing 429] | −0.08852 | 0.05126 | −0.2482 | −0.1853 | −0.1051 | −0.1944
3 | O=C(NCc1ccccc1)C(c1c(F)cccc1Cl)N(C(=O)c1csnn1)C1CC1 (stereo not drawn) [drawing 430] | 0.2226 | −0.02073 | −0.2107 | −0.07084 | −0.182 | −0.2594
4 | Cc1[nH]c2ccc(F)cc2c1CCN(Cc1ccco1)/C(S)=N/C(C)(C)C [drawing 431] | −0.02866 | −0.1703 | −0.1851 | −0.06955 | −0.543 | −0.807
5 | c1ccc(-c2cc(-c3nc4ccccc4[nH]3)c3ccccc3n2)cc1 [drawing 432] | −0.06598 | −0.05419 | −0.2722 | −0.06437 | −0.3184 | −0.5085
6 | CCC(C)n1nc(O)cc1N (stereo not drawn) [drawing 433] | 0.1351 | −0.05991 | −0.1063 | −0.1016 | −0.1631 | −0.144
7 | Cc1ccc(C(=O)N2CCN(S(=O)(=O)N3CCOCC3)CC2)cc1 [drawing 434] | −0.01141 | −0.169 | 0.007084 | 0.1108 | −0.2209 | 0.1179
8 | Cc1cccc(NC(=O)CN(C)C(=O)c2ccc(-c3ccc(Cl)cc3)o2)c1 [drawing 435] | −0.06415 | −0.0743 | −0.09532 | −0.1682 | −0.3693 | −0.5402
9 | Cc1ccccc1S(=O)(=O)N1C[C@H]2CON(C)[C@H]2C[C@H]1c1cccc(-c2ccccc2)c1 [drawing 436] | 0.01204 | 0.03174 | −0.2012 | −0.2418 | −0.3306 | −0.5892
10 | N#C/C(=C/c1ccc(N2CCOCC2)o1)C(=O)Nc1ccccc1 [drawing 437] | −0.01316 | 0.1058 | −0.1378 | −0.06524 | 0.007978 | −0.03236
11 | CCOc1ccccc1Nc1cc2n(c(=O)n1)CCc1cc(OC)c(OC)cc1-2 [drawing 438] | 0.06921 | 0.1295 | −0.255 | −0.3585 | −0.1938 | −0.1921
12 | CCOc1ccccc1NC(=O)COC(=O)CNS(=O)(=O)c1ccc(C)cc1 [drawing 440] | −0.09293 | 0.0165 | −0.2547 | −0.2483 | −0.1393 | −0.07634
13 | Fc1ccc(-c2ccnc3nc(N4CCN(c5ccccc5)CC4)nn23)cc1 [drawing 441] | 0.1617 | 0.1989 | 0.08445 | 0.3037 | −0.1429 | 0.1756
14 | CCOc1cc2c3c(c1)C(C)=CC(C)(C)N3C(=O)C2=O [drawing 442] | 0.1339 | 0.05498 | −0.2641 | −0.2882 | −0.3067 | −0.3705
15 | COc1ccc2c(c1)/C(=C\c1cccc(/C=C3/C(=O)Nc4ccc(OC)cc43)n1)C(=O)N2 [drawing 443] | −0.1407 | −0.2351 | −0.5201 | −0.5078 | −0.5433 | −0.6161
16 | C/C(=N\NC(=O)c1cc(C)oc1C)c1ccc2ccccc2c1 [drawing 444] | −0.05394 | −0.1247 | 0.2514 | −0.05957 | −0.1231 | −0.2807
17 | O=C1Nc2ccccc2/C1=C\c1cccn1-c1ccc(OC(F)(F)F)cc1 [drawing 445] | 0.0705 | 0.06007 | 0.1996 | −0.05189 | −0.1444 | −0.2888
18 | NS(=O)(=O)c1ccc(NC(=O)CN2CCc3ccccc32)cc1 [drawing 446] | −0.03601 | −0.07498 | 0.1476 | −0.1666 | −0.05843 | −0.06764
19 | CC(=O)C1=C(C)Nc2ncnn2C1c1ccc(C)cc1 (stereo not drawn) [drawing 447] | 0.06012 | −0.01856 | 0.152 | −0.155 | −0.1763 | −0.08699
20 | COc1ccc(OC)c(S(=O)(=O)Nc2c(NC3CCCCC3)c3ccccc3oc2=O)c1 [drawing 448] | 0.01269 | −0.0336 | 0.04486 | −0.2638 | −0.05892 | −0.2063
21 | CC(=O)Nc1ccc(NC(=O)C/C(C)=N/NC(=O)COc2cc(C)c(Br)cc2Br)cc1 [drawing 449] | −0.08286 | −0.1235 | −0.2507 | −0.3124 | −0.1128 | −0.2976
22 | Cc1cccc(Cn2cnc3c(nnn3Cc3ccc(Cl)cc3)c2=O)c1 [drawing 450] | 0.04908 | −0.01328 | −0.09823 | −0.3107 | −0.1707 | −0.1775
23 | CCOc1ccc(Br)cc1S(=O)(=O)Nc1ccc(C(=O)Nc2ccccc2OC)cc1 [drawing 451] | 0.1091 | 0.02499 | −0.02123 | −0.1229 | −0.2419 | −0.2407
24 | O=C(NCc1ccccc1)c1csc(-c2cccnc2)n1 [drawing 452] | −0.05273 | −0.1614 | 0.1395 | 0.1693 | 0.05975 | −0.1073
